In article PMC7072624 (Biomolecules, 2020):

How the values were obtained:
CDK5 (CDK5/p25) = target: T1, CDK5 (CDK5/p25) (Homo sapiens, UniProt Q00535); assay: in vitro kinase inhibition assay; assay type: biochemical
T1 construct: with p25

[1] = target: T2, peroxisome proliferator-activated receptor γ (PPARγ) (Homo sapiens, UniProt P37231); assay: ([…] Å); competitive TR-FRET binding assay
T2 construct: gene PPARG
T2 sequence (P37231 223-505): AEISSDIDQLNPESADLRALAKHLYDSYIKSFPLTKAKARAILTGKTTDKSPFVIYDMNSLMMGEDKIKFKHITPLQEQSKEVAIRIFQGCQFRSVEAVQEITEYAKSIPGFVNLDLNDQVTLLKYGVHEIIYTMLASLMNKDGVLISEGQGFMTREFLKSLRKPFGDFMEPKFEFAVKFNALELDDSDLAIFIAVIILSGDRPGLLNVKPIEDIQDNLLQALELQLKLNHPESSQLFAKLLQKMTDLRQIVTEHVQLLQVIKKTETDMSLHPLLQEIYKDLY

PPARγ = target: T3, PPARγ (Homo sapiens, UniProt P37231); assay: competitive TR-FRET binding assay (Lanthascreen)
T3 construct: gene PPARG
T3 sequence (P37231 1-505): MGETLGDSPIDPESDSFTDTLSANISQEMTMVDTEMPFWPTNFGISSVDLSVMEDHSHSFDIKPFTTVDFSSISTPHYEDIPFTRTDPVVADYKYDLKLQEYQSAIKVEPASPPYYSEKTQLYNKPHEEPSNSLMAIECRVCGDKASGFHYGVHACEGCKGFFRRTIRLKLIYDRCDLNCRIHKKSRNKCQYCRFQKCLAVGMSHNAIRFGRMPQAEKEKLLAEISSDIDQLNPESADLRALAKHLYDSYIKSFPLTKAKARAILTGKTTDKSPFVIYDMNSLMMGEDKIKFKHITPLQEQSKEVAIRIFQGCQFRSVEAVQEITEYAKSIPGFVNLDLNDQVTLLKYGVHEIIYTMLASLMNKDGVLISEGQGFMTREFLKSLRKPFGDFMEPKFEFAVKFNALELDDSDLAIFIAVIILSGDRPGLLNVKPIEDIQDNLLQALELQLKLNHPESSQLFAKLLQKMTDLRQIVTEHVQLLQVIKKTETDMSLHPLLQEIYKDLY

T1 sequence (Q00535 whole entry): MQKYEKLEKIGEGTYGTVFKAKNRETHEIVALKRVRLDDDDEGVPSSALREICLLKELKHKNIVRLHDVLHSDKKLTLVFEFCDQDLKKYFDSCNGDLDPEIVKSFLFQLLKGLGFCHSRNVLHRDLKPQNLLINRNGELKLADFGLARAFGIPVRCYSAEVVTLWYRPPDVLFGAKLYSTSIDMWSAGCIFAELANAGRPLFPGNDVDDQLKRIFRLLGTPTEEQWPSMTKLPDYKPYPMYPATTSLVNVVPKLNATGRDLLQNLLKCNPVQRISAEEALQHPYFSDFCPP
T1 sequence (Q15078 2-307 partner): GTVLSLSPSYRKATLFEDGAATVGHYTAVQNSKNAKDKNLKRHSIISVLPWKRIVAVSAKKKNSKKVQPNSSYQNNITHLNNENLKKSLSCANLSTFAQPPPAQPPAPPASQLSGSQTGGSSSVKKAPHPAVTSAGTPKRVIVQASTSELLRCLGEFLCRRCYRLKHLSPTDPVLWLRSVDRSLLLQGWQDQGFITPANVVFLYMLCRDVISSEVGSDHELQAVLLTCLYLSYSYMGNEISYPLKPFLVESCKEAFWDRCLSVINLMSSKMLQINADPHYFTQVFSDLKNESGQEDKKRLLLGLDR

SMILES	IC50 (CDK5 (CDK5/p25))	Ki [1]	Ki (PPARγ)
COC(=O)[C@]1(Cc2ccc(O)c(CC=C(C)C)c2)OC(=O)C(O)=C1c1ccc(O)cc1 [butyrolactone I]	170 nM	2640 nM	–
COc1ccc(Cl)cc1C(=O)NCCc1ccc(S(=O)(=O)NC(=O)NC2CCCCC2)cc1 [glibenclamide]	–	–	1180 nM
